Experimental data reported in US12012392B2, “Sulfonamide carboxamide compounds” (Inflazome Limited, priority 2017, dated 2024).
Where a name gives a salt, the structure may show the parent alone.

Columns and labels:
NLRP3 [1] = target: T1, NLRP3 (Homo sapiens, UniProt Q96P20); assay: THP-1 cells pyroptosis assay; assay type: cell-based; parameters: Seed THP-1 cells (25,000 cells/well) containing 1.0 μg/ml LPS; host or cells: THP-1 cells, LPS-primed, nigericin-stimulated; settings: LPS 1 μg/ml, nigericin 5 μM, resazurin read-out
T1 sequence (Q96P20 whole entry): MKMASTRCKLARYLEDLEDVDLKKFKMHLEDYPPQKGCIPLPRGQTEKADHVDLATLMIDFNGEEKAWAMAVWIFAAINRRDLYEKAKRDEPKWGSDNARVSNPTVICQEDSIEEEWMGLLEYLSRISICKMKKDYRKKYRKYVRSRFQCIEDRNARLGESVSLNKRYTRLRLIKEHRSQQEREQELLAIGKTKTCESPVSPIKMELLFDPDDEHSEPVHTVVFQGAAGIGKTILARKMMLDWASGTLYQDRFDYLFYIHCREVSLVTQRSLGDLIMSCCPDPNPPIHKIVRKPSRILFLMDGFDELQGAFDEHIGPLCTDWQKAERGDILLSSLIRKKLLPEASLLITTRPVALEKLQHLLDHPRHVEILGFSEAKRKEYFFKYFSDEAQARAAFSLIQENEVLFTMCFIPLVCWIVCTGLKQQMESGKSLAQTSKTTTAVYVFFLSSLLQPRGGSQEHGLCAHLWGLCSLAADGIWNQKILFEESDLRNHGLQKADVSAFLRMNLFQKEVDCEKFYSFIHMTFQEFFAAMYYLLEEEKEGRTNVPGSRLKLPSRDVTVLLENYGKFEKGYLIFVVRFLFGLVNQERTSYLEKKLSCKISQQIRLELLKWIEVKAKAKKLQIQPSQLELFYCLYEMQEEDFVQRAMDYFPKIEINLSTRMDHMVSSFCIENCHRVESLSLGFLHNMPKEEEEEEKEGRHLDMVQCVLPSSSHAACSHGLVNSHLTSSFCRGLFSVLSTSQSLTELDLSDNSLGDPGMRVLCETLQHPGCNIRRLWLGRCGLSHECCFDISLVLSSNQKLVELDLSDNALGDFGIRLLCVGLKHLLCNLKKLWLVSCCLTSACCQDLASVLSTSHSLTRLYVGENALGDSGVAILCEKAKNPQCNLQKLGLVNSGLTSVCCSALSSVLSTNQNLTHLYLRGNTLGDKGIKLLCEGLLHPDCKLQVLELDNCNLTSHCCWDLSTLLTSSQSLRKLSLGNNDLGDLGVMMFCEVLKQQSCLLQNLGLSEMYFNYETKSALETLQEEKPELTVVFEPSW
Procedure: THP-1 cells (ATCC #TIB-202) were grown in RPMI containing L-glutamine (Gibco #11835) supplemented with 1 mM sodium pyruvate (Sigma #S8636) and penicillin (100 units/ml)/streptomycin (0.1 mg/ml) (Sigma #P4333) in 10% Fetal Bovine Serum (FBS) (Sigma #F0804). The cells were routinely passaged and grown to confluency (˜10^6 cells/ml). On the day of the experiment, THP-1 cells were harvested and resuspended into RPMI medium (without FBS). The cells were then counted and viability (>90%) checked by Trypan blue (Sigma #T8154). Appropriate dilutions were made to give a concentration of 625,000 cells/ml. To this diluted cell solution was added LPS (Sigma #L4524) to give a 1 μg/ml Final Assay Concentration (FAC). 40 μl of the final preparation was aliquoted into each well of a 96-well plate. The plate thus prepared was used for compound screening.
The following method step-by-step assay was followed for compound screening. • 1. Seed THP-1 cells (25,000 cells/well) containing 1.0 μg/ml LPS in 40 μl of RPMI medium (without FBS) in 96-well, black walled, clear bottom cell culture plates coated with poly-D-lysine (VWR #734-0317) • 2. Add 5 μl compound (8 points half-log dilution, with 10 μM top dose) or vehicle (DMSO 0.1% FAC) to the appropriate wells • 3. Incubate for 3 hrs at 37° C. and 5% CO2 • 4. Add 5 μl nigericin (Sigma #N7143) (FAC 5 μM) to all wells • 5. Incubate for 1 hr at 37° C. and 5% CO2 • 6. At the end of the incubation period, spin plates at 300×g for 3 mins and remove supernatant • 7. Then add 50 μl of resazurin (Sigma #R7017) (FAC 100 μM resazurin in RPMI medium without FBS) and incubate plates for a further 1-2 hrs at 37° C. and 5% CO2 • 8. Plates were read in an Envision reader at Ex 560 nm and Em 590 nm • 9. IC50 data is fitted to a non-linear regression equation (log inhibitor vs response-variable slope 4-parameters) 96-Well Plate Map

NLRP3 [2] = target: T1, NLRP3; assay: Human whole blood IL1β release assay; assay type: cell-based; parameters: Plate out 80 μl of whole blood containing 1 μg/ml of LPS; from tissue; host or cells: human whole blood from healthy donors, LPS-primed, nigericin-stimulated; settings: LPS 1 μg/ml, nigericin 10 μM, IL-1β AlphaLisa, read-out: HWB IC50
Procedure: For systemic delivery, the ability to inhibit NLRP3 when the compounds are present within the bloodstream is of great importance. For this reason, the NLRP3 inhibitory activity of a number of compounds in human whole blood was investigated in accordance with the following protocol.
Human whole blood in Li-heparin tubes was obtained from healthy donors from a volunteer donor panel. • 1. Plate out 80 μl of whole blood containing 1 μg/ml of LPS in 96-well, clear bottom cell culture plate (Corning #3585) • 2. Add […] compound (8 points half-log dilution with 10 μM top dose) or vehicle (DMSO 0.1% FAC) to the appropriate wells • 3. Incubate for 3 hrs at 37° C., 5% CO2 • 4. Add 10 μl Nigericin (Sigma #N7143) (10 μM FAC) to all wells • 5. Incubate for 1 hr at 37° C., 5 CO2 • 6. At the end of the incubation period, spin plates at 300×g for 5 mins to pellet cells and remove 20 μl of supernatant and add to 96-well v-bottom plates for […] analysis (note: these plates containing the supernatants can be stored at −80° C. to be analysed at a later date) • 7. IL-1β was measured according to the manufacturer protocol (Perkin Elmer-AlphaLisa IL-1 Kit AL220F-5000) • 8. IC50 data is fitted to anon-linear regression equation (log inhibitor vs response-variable slope 4-parameters)

Row | SMILES | IC50 (NLRP3 [1]) [nM] | IC50 (NLRP3 [2]) [nM]
1 | O=C(Nc1c2c(cc3c1CCC3)CCC2)NS(=O)(=O)c1ccn(C2CCCC2O)n1 (racemic) [Example 22, N-((1,2,3,5,6,7-Hexahydro-s-indacen-4-yl)carbamoyl)-1-(2-hydroxycyclopentyl)-1H-pyrazole-1-sulfonamide] | 40 to 160 | 400 to 800
2 | O=C(Nc1c2c(cc3c1CCC3)CCC2)NS(=O)(=O)c1ccn(CC2CCCO2)n1 (single isomer, unassigned) [Example 4] | 40 to 160 | 3200 to 10000
3 | O=C(Nc1c2c(cc3c1CCC3)CCC2)NS(=O)(=O)c1ccn(CC2CCCO2)n1 (single isomer, unassigned) [Example 5] | 40 to 160 | 800 to 1600
4 | O=C(Nc1c2c(cc3c1CCC3)CCC2)NS(=O)(=O)c1ccn(CC2CCOC2)n1 (stereo not drawn) [Example 6, N-((1,2,3,5,6,7-Hexahydro-s-indacen-4-yl)carbamoyl)-1-((tetrahydrofuran-3-yl)methyl)-1H-pyrazole-3-sulfonamide] | 40 to 160 | 800 to 1600
5 | O=C(Nc1c2c(cc3c1CCC3)CCC2)NS(=O)(=O)c1ccn(CCCO)n1 [Example 7, N-((1,2,3,5,6,7-Hexahydro-s-indacen-4-yl)carbamoyl)-1-(3-hydroxypropyl)-1H-pyrazole-3-sulfonamide] | 40 to 160 | 400 to 800
6 | O=C(Nc1c2c(cc3c1CCC3)CCC2)NS(=O)(=O)c1ccn(CCO)n1 [Example 8, N-((1,2,3,5,6,7-Hexahydro-s-indacen-4-yl)carbamoyl)-1-(2-hydroxyethyl)-1H-pyrazole-3-sulfonamide] | 40 to 160 | < 400
7 | CC1(Cn2ccc(S(=O)(=O)NC(=O)Nc3c4c(cc5c3CCC5)CCC4)n2)COC1 [Example 9, N-((1,2,3,5,6,7-Hexahydro-s-indacen-4-yl)carbamoyl)-1-((3-methyloxetan-3-yl)methyl)-1H-pyrazole-3-sulfonamide, partial ammonium salt] | 640 to 2560 | 3200 to 10000
8 | O=C(Nc1c2c(cc3c1CCC3)CCC2)NS(=O)(=O)c1ccn(C2COC2)n1 [Example 12, N-((1,2,3,5,6,7-Hexahydro-s-indacen-4-yl)carbamoyl)-1-(oxetan-3-yl)-1H-pyrazole-3-sulfonamide] | 160 to 640 | 800 to 1600
9 | COC(C)(C)Cn1ccc(S(=O)(=O)NC(=O)Nc2c3c(cc4c2CCC4)CCC3)n1 [Example 14, N-((1,2,3,5,6,7-Hexahydro-s-indacen-4-yl)carbamoyl)-1-(2-methoxy-2-methylpropyl)-1H-pyrazole-3-sulfonamide] | < 40 | 400 to 800
10 | C[C@@H](CO)n1ccc(S(=O)(=O)NC(=O)Nc2c3c(cc4c2CCC4)CCC3)n1 [Example 15, (S)—N-((1,2,3,5,6,7-Hexahydro-s-indacen-4-yl)carbamoyl)-1-(1-hydroxypropan-2-yl)-1H-pyrazole-3-sulfonamide] | 40 to 160 | 800 to 1600
11 | COC(C)(C)Cn1ccc(S(=O)(=O)NC(=O)Nc2c(C(C)C)cc(F)cc2C(C)C)n1 [Example 17, N-((4-Fluoro-2,6-diisopropylphenyl)carbamoyl)-1-(2-methoxy-2-methylpropyl)-1H-pyrazole-3-sulfonamide] | 640 to 2560 | 3200 to 10000
12 | CC(C)c1cc(F)cc(C(C)C)c1NC(=O)NS(=O)(=O)c1ccn(CC(C)(C)O)n1 [Example 18, N-((4-Fluoro-2,6-diisopropylphenyl)carbamoyl)-1-(2-hydroxy-2-methylpropyl)-1H-pyrazole-3-sulfonamide] | 640 to 2560 | 1600 to 3200
13 | CC(C)c1cc(Cl)cc(C(C)C)c1NC(=O)NS(=O)(=O)c1ccn(CC(C)(C)O)n1 [Example 19, N-((4-Chloro-2,6-diisopropylphenyl)carbamoyl)-1-(2-hydroxy-2-methylpropyl)-1H-pyrazole-3-sulfonamide] | 640 to 2560 | 3200 to 10000
14 | CC(C)(CO)n1ccc(S(=O)(=O)NC(=O)Nc2c3c(cc4c2CCC4)CCC3)n1 [Example 20, N-((1,2,3,5,6,7-Hexahydro-s-indacen-4-yl)carbamoyl)-1-(1-hydroxy-2-methylpropan-2-yl)-1H-pyrazole-3-sulfonamide] | 40 to 160 | 800 to 1600
15 | CC[C@H](O)Cn1ccc(S(=O)(=O)NC(=O)Nc2c3c(cc4c2CCC4)CCC3)n1 [Example 21, (S)—N-((1,2,3,5,6,7-Hexahydro-s-indacen-4-yl)carbamoyl)-1-(2-hydroxybutyl)-1H-pyrazole-3-sulfonamide] | 40 to 160 | 800 to 1600
16 | CC[C@@H](O)Cn1ccc(S(=O)(=O)NC(=O)Nc2c3c(cc4c2CCC4)CCC3)n1 [Example 25, (R)—N-((1,2,3,5,6,7-Hexahydro-s-indacen-4-yl)carbamoyl)-1-(2-hydroxybutyl)-1H-pyrazole-3-sulfonamide] | 160 to 640 | 800 to 1600
17 | O=C(Nc1c2c(cc3c1CCC3)CCC2)NS(=O)(=O)c1ccn(CC(O)C(F)(F)F)n1 (stereo not drawn) [Example 30, N-((1,2,3,5,6,7-Hexahydro-s-indacen-4-yl)carbamoyl)-1-(3,3,3-trifluoro-2-hydroxypropyl)-1H-pyrazole-3-sulfonamide] | 40 to 160 | 800 to 1600
18 | O=C(Nc1c2c(cc3c1CCC3)CCC2)NS(=O)(=O)c1ccn(C2CCOCC2)n1 [Example 31, N-((1,2,3,5,6,7-Hexahydro-s-indacen-4-yl)carbamoyl)-1-(tetrahydro-2H-pyran-4-yl)-1H-pyrazole-3-sulfonamide] | 160 to 640 | 1600 to 3200
19 | CC(C)c1cc(Cl)cc(C(C)C)c1NC(=O)NS(=O)(=O)c1ccn(C2CCOCC2)n1 [Example 32, N-((4-Chloro-2,6-diisopropylphenyl)carbamoyl)-1-(tetrahydro-2H-pyran-4-yl)-1H-pyrazole-3-sulfonamide] | 640 to 2560 | 3200 to 10000
20 | C[C@@H](O)Cn1ncc(S(=O)(=O)NC(=O)Nc2c3c(cc4c2CCC4)CCC3)n1 [Example 33, (R)—N-((1,2,3,5,6,7-Hexahydro-s-indacen-4-yl)carbamoyl)-2-(2-hydroxypropyl)-2H-1,2,3-triazole-4-sulfonamide] | 160 to 640 | 800 to 1600
21 | O=C(Nc1c2c(cc3c1CCC3)CCC2)NS(=O)(=O)c1ccn(C2CC(O)C2)n1 (stereo not drawn) [Example 34, N-((1,2,3,5,6,7-Hexahydro-s-indacen-4-yl)carbamoyl)-1-(3-hydroxycyclobutyl)-1H-pyrazole-3-sulfonamide] | 160 to 640 | 800 to 1600
22 | COC1(c2cc(S(=O)(=O)NC(=O)Nc3c(-c4cccnc4)cc(F)c4c3CCC4)nn2C)COC1 [Example 35, N-((7-Fluoro-5-(pyridin-3-yl)-2,3-dihydro-1H-inden-4-yl)carbamoyl)-5-(3-methoxyoxetan-3-yl)-1-methyl-1H-pyrazole-3-sulfonamide] | 160 to 640 | 800 to 1600
23 | C[C@@H](O)Cn1cnc(S(=O)(=O)NC(=O)Nc2c3c(cc4c2CCC4)CCC3)n1 [Example 36, (R)—N-((1,2,3,5,6,7-Hexahydro-s-indacen-4-yl)carbamoyl)-1-(2-hydroxypropyl)-1H-1,2,4-triazole-3-sulfonamide] | 160 to 640 | 400 to 800
24 | CC(C)c1cc(F)cc(-c2cccnc2)c1NC(=O)NS(=O)(=O)c1ccn(C[C@@H](C)O)n1 [Example 37, (R)—N-((4-Fluoro-2-isopropyl-6-(pyridin-3-yl)phenyl)carbamoyl)-1-(2-hydroxypropyl)-1H-pyrazole-3-sulfonamide] | 160 to 640 | < 400
